Experiments:
Assay in all cases: Test C greenhouse herbicide test, pre- and postemergence
Type in all cases: in vivo
[1] = system: blackgrass (Alopecurus myosuroides)
In short: (§1)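 Percent-control ratings (0 none, 100 complete) came from visual comparison with controls held alongside in the greenhouse for 13–15 d. Treatments covered soil application at sowing and foliar application to young plants 2–18 cm tall.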

[2] = system: ryegrass, Italian (Italian ryegrass, Lolium multiflorum)
In short: as §1

[3] = system: barnyardgrass (Echinochloa crus-galli)
In short: as §1

[4] = system: morningglory (Ipomoea coccinea)
In short: as §1

[5] = system: lambsquarters (Chenopodium album)
In short: as §1

corn (Zea mays) = system: corn (Zea mays)
In short: as §1

[6] = system: pigweed (Amaranthus retroflexus)
In short: as §1

[7] = system: johnsongrass (Sorghum halepense)
In short: as §1

[8] = system: ragweed (common ragweed, Ambrosia elatior)
In short: as §1

[9] = system: waterhemp (common waterhemp, Amaranthus rudis)
In short: as §1

[10] = system: velvetleaf (Abutilon theophrasti)
In short: as §1

[11] = system: wheat (winter wheat, Triticum aestivum)
In short: as §1

[12] = system: nutsedge, yellow (yellow nutsedge, Cyperus esculentus)
In short: as §1

soybean (Glycine max) = system: soybean (Glycine max)
In short: as §1

[13] = system: crabgrass, large (large crabgrass, Digitaria sanguinalis)
In short: as §1

[14] = Postemergence, 31 g ai/ha, scale 0 to 100 (0 no effect, 100 complete control)
[15] = Postemergence, 125 g ai/ha, scale 0 to 100, 0 is no effect, 100 is complete control
[16] = Postemergence, 250 g ai/ha, scale 0 to 100, 0 no effect, 100 complete control, 13 to 15 d
[17] = Preemergence, 31 g ai/ha, scale 0 to 100, 0 is no effect, 100 is complete control
[18] = Preemergence, 62 g ai/ha, scale 0 to 100, 0 is no effect, 100 is complete control
[19] = Preemergence, 125 g ai/ha, scale 0 to 100, 0 is no effect, 100 is complete control
[20] = Preemergence, 250 g ai/ha, scale 0 to 100, 0 no effect, 100 complete control
[21] = postemergence, 62 g ai/ha, scale 0 to 100, 0 no effect, 100 complete control

SMILES: CCCC(=O)Oc1c(C)nn(C)c(=O)c1-c1c(C)sc2ccc(C)cc12 [Compound 105]
- Plant response rating, Blackgrass [1, 14]: 15
- Plant response rating, Blackgrass [1, 15]: 50
- Plant response rating, Blackgrass [1, 16]: 60
- Plant response rating, Blackgrass [1, 17]: 20
- Plant response rating, Blackgrass [1, 18]: 50
- Plant response rating, Blackgrass [1, 19]: 55
- Blackgrass plant response rating [1, 20]: 90
- Blackgrass plant response rating [1, 21]: 40
- Plant response rating, Ryegrass, Italian [2, 14]: 85
- Plant response rating, Ryegrass, Italian [2, 15]: 90
- Plant response rating, Ryegrass, Italian [2, 16]: 80
- Plant response rating, Ryegrass, Italian [2, 17]: 40
- Plant response rating, Ryegrass, Italian [2, 18]: 90
- Plant response rating, Ryegrass, Italian [2, 19]: 90
- Ryegrass, Italian plant response rating [2, 20]: 95
- Plant response rating, Barnyardgrass [3, 14]: 10
- Plant response rating, Barnyardgrass [3, 15]: 25
- Plant response rating, Barnyardgrass [3, 16]: 20
- Plant response rating, Barnyardgrass [3, 17]: 0
- Plant response rating, Barnyardgrass [3, 18]: 30
- Plant response rating, Barnyardgrass [3, 19]: 60
- Barnyardgrass plant response rating [3, 20]: 90
- Barnyardgrass plant response rating [3, 21]: 25
- Plant response rating, Morningglory [4, 14]: 100
- Plant response rating, Morningglory [4, 15]: 100
- Plant response rating, Morningglory [4, 16]: 100
- Plant response rating, Morningglory [4, 17]: 85
- Plant response rating, Morningglory [4, 18]: 90
- Plant response rating, Morningglory [4, 19]: 100
- Morningglory plant response rating [4, 20]: 95
- Plant response rating, Lambsquarters [5, 14]: 85
- Plant response rating, Lambsquarters [5, 15]: 100
- Plant response rating, Lambsquarters [5, 16]: 100
- Plant response rating, Lambsquarters [5, 17]: 95
- Plant response rating, Lambsquarters [5, 18]: 85
- Plant response rating, Lambsquarters [5, 19]: 90
- Lambsquarters plant response rating [5, 20]: 95
- Plant response rating, Corn (corn (Zea mays); [14]): 10
- Plant response rating, Corn (corn (Zea mays); [15]): 30
- Plant response rating, Corn (corn (Zea mays); [16]): 30
- Plant response rating, Corn (corn (Zea mays); [17]): 0
- Plant response rating, Corn (corn (Zea mays); [18]): 0
- Plant response rating, Corn (corn (Zea mays); [19]): 5
- Corn plant response rating (corn (Zea mays); [20]): 25
- Corn plant response rating (corn (Zea mays); [21]): 15
- Plant response rating, Pigweed [6, 14]: 85
- Plant response rating, Pigweed [6, 15]: 100
- Plant response rating, Pigweed [6, 16]: 98
- Plant response rating, Pigweed [6, 17]: 98
- Plant response rating, Pigweed [6, 18]: 100
- Plant response rating, Pigweed [6, 19]: 100
- Pigweed plant response rating [6, 20]: 100
- Plant response rating, Johnsongrass [7, 14]: 5
- Plant response rating, Johnsongrass [7, 15]: 0
- Plant response rating, Johnsongrass [7, 16]: 0
- Plant response rating, Johnsongrass [7, 17]: 10
- Plant response rating, Johnsongrass [7, 18]: 20
- Plant response rating, Johnsongrass [7, 19]: 20
- Johnsongrass plant response rating [7, 20]: 60
- Plant response rating, Ragweed [8, 14]: 90
- Plant response rating, Ragweed [8, 15]: 98
- Plant response rating, Ragweed [8, 16]: 100
- Plant response rating, Ragweed [8, 17]: 90
- Plant response rating, Ragweed [8, 18]: 90
- Plant response rating, Ragweed [8, 19]: 98
- Ragweed plant response rating [8, 20]: 100
- Plant response rating, Waterhemp [9, 14]: 80
- Plant response rating, Waterhemp [9, 15]: 100
- Plant response rating, Waterhemp [9, 16]: 98
- Plant response rating, Waterhemp [9, 17]: 90
- Plant response rating, Waterhemp [9, 18]: 95
- Plant response rating, Waterhemp [9, 19]: 100
- Waterhemp plant response rating [9, 20]: 100
- Plant response rating, Velvetleaf [10, 14]: 75
- Plant response rating, Velvetleaf [10, 15]: 90
- Plant response rating, Velvetleaf [10, 16]: 100
- Plant response rating, Velvetleaf [10, 17]: 60
- Plant response rating, Velvetleaf [10, 18]: 85
- Plant response rating, Velvetleaf [10, 19]: 90
- Velvetleaf plant response rating [10, 20]: 95
- Plant response rating, Wheat [11, 14]: 0
- Plant response rating, Wheat [11, 15]: 5
- Plant response rating, Wheat [11, 16]: 5
- Plant response rating, Wheat [11, 17]: 0
- Plant response rating, Wheat [11, 18]: 10
- Plant response rating, Wheat [11, 19]: 10
- Wheat plant response rating [11, 20]: 5
- Plant response rating, Nutsedge, Yellow [12, 14]: 55
- Plant response rating, Nutsedge, Yellow [12, 15]: 75
- Plant response rating, Nutsedge, Yellow [12, 16]: 90
- Plant response rating, Nutsedge, Yellow [12, 17]: 40
- Plant response rating, Nutsedge, Yellow [12, 18]: 45
- Plant response rating, Nutsedge, Yellow [12, 19]: 40
- Nutsedge, Yellow plant response rating [12, 20]: 85
- Plant response rating, Soybean (soybean (Glycine max); [14]): 5
- Plant response rating, Soybean (soybean (Glycine max); [15]): 10
- Plant response rating, Soybean (soybean (Glycine max); [16]): 40
- Plant response rating, Soybean (soybean (Glycine max); [17]): 0
- Plant response rating, Soybean (soybean (Glycine max); [18]): 0
- Plant response rating, Soybean (soybean (Glycine max); [19]): 0
- Soybean plant response rating (soybean (Glycine max); [20]): 0
- Plant response rating, Crabgrass, Large [13, 14]: 20
- Plant response rating, Crabgrass, Large [13, 15]: 20
- Plant response rating, Crabgrass, Large [13, 16]: 30
- Plant response rating, Crabgrass, Large [13, 17]: 20
- Plant response rating, Crabgrass, Large [13, 18]: 50
- Plant response rating, Crabgrass, Large [13, 19]: 75
- Crabgrass, Large plant response rating [13, 20]: 80
- Crabgrass, Large plant response rating [13, 21]: 30

Reference: US10597388B2, “Pyridazinone herbicides” (FMC CORPORATION, priority 2014, dated 2020)
